Ends that are not written are not given here. Peptide text beside a SMILES is read from it. * marks the point of attachment. Palmitoyl = CCCCCCCCCCCCCCCC(=O)*; Myristoyl = CCCCCCCCCCCCCC(=O)*
Key:
C57BL/6 mice = test: Food intake in fasted mice after SC injection; type: in vivo; conditions: 5 mg/kg SC, 45 min after injection
Experimental: NMRI mice, C57BL/6 mice, and Wistar rats (AnLab, Prague, Czech Republic) were housed in a temperature of 23° C. and a daily cycle of 12 h light and dark (light from 6:00). They were given ad libitum water and a standard chow diet that contained 25, 9 and 66% of calories of protein, fat and carbohydrate respectively. Energy content of the feed was 3.4 kcal/g (St-1, Mlýn Kocanda, Czech Republic). Db/db mice and their controls (C57BL/6 background) were obtained from Taconic (Denmark), housed under the same conditions as described above, and fed by Altromin (Taconic, Denmark). ZDF-Lepr^fa/Crl, diabetic fa/fa male rats were obtained from Charles River (France), housed under same conditions as described above, and fed with a Purina 5008 diet (IPS Product Supplies Limited, UK). All experiments followed the ethical guidelines for animal experiments and the law of the Czech Republic Nr. 246/1992.
In experiments with C57BL/6 mice or Wistar rats, food intake was measured with overnight fasted animals in individual cages. Food was withdrawn 17 hours prior to injection of lipidated analog of prolactin releasing peptide (PrRP); free access to water was maintained. The administration of either saline, PrRP, or lipidated analogs was performed by SC injection at doses of 1-10 mg/kg (which corresponded to a volume of 0.2 ml/mouse and 0.1 ml/100 g weight of rat). Fifteen minutes after the lipidated analog of prolactin releasing peptide (PrRP) administration, the mice were given pre-weighed food. The food was then weighed every 30 minutes for 5-10 hours. The administration of each dose was performed at least twice, and each group of mice consisted of at least 6 mice.

rat PrRP receptor = target: T1, rat PrRP receptor (Rattus norvegicus, UniProt Q64121); test: Competitive binding in RC-4B/C rat pituitary cells (125I-rat PrRP31); conditions: for % of PrRP31, RC-4B/C rat pituitary cells: affinity relative to PrRP31; for Ki: displacement of 125I-rat PrRP31, read-out: Ki, RC-4B/C rat pituitary cells ^25I-rat PrRP31
T1 construct: host or cells: RC-4B/C rat pituitary cell line
T1 sequence (Q64121 1-370): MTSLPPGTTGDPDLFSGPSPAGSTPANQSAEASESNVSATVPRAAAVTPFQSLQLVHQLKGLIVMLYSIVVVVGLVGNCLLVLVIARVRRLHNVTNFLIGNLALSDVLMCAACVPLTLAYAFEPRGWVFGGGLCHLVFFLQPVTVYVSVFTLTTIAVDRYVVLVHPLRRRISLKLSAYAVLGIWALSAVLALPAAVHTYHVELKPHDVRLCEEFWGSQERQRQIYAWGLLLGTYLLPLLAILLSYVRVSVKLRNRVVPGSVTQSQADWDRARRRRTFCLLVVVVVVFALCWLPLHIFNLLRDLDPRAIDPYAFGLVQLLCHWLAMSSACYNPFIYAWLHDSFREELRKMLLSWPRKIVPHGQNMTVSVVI
Summary of the method: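 Displacement of rat 125I-PrRP31 ([…]) by test analogs, 10^−11–10^−4 mol·l^−1, on whole RC-4B/C cells, 60 min RT. Bound counts measured by γ-counter in duplicate, ≥3 repeats, analyzed by nonlinear one-site binding regression.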

[1] = target: T2, human PrRP receptor GPR10 (Homo sapiens, UniProt P49683); test: Competitive binding in CHO cells transfected with human GPR10 (human 125I-PrRP31); conditions: for Ki: CHO cells, human 125I-PrRP31, read-out: Ki, GPR10 human receptor transfected in CHO cells; for % of PrRP31, GPR10 human receptor transfected in CHO cells: affinity relative to PrRP31
T2 construct: host or cells: CHO cells
T2 sequence (P49683 1-370): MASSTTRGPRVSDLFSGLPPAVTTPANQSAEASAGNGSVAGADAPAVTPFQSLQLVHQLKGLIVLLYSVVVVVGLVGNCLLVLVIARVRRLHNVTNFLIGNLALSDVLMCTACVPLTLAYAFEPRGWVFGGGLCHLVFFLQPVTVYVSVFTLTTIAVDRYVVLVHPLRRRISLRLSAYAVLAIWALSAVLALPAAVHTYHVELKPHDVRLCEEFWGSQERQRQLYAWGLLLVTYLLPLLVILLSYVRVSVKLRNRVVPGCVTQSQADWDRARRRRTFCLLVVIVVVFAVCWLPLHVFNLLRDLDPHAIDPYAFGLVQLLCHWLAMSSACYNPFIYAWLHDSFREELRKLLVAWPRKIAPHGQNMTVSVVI
Summary of the method: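 Values from one-site nonlinear regression of displacement curves: analogs (final 10^-11 to 10^-4 mol·l^-1) competed with 125I-PrRP31 (final 5×10^-11 mol·l^-1) on adherent human GPR10 CHO cells. Binding ran 1 h at room temperature, pH 7.4 buffer with NaCl, MgCl2, CaCl2, glucose, BSA; cell-bound radioactivity counted after NaOH lysis.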

| Molecule | Food intake in mice % of saline-treated group (C57BL/6 mice) [%] | % of PrRP31, RC-4B/C rat pituitary cells (rat PrRP receptor) [%] | Ki [1] [nM] | % of PrRP31, GPR10 human receptor transfected in CHO cells [1] [%] | Displacement of rat 125I-PrRP binding (rat PrRP receptor; RC-4B/C cells, rat PrRP receptor) | Displacement of human 125I-PrRP binding ([1]; human GPR10 receptor) | Ki (rat PrRP receptor; RC-4B/C cells) [nM] |
| --- | --- | --- | --- | --- | --- | --- | --- |
| CCCCCCCCCCCCCC(=O)N[C@H](C(=O)N1CCC[C@H]1C(=O)N[C@@H](CC(=O)O)C(=O)N[C@H](C(=O)N[C@@H](CC(N)=O)C(=O)N1CCC[C@H]1C(=O)N[C@@H](C)C(=O)N[C@@H](Cc1c[nH]c2ccccc12)C(=O)N[C@@H](Cc1ccc(O)cc1)C(=O)N[C@H](C(=O)NCC(=O)N[C@@H](CCCNC(=N)N)C(=O)NCC(=O)N[C@H](C(=O)N[C@@H](CCCNC(=N)N)C(=O)N1CCC[C@H]1C(=O)N[C@H](C(=O)NCC(=O)N[C@@H](CCCNC(=N)N)C(=O)N[C@@H](Cc1ccccc1)C(N)=O)C(C)C)[C@@H](C)CC)[C@@H](C)O)[C@@H](C)CC)[C@@H](C)O [Analog 1] (Myristoyl-TPDINPAWYTGRGIRPVGRF-NH2) | 32 | 632 | 2.93 ± 0.2 | 133 |  |  |  |
| CCCCCCCCCCCCCC(=O)N[C@H](C(=O)N1CCC[C@H]1C(=O)N[C@@H](CC(=O)O)C(=O)N[C@H](C(=O)N[C@@H](CC(N)=O)C(=O)N1CCC[C@H]1C(=O)N[C@@H](C)C(=O)N[C@@H](Cc1c[nH]c2ccccc12)C(=O)N[C@@H](Cc1ccc(O)cc1)C(=O)N[C@@H](C)C(=O)N[C@@H](CO)C(=O)N[C@@H](CCCNC(=N)N)C(=O)NCC(=O)N[C@H](C(=O)N[C@@H](CCCNC(=N)N)C(=O)N1CCC[C@H]1C(=O)N[C@H](C(=O)NCC(=O)N[C@@H](CCCNC(=N)N)C(=O)N[C@@H](Cc1ccccc1)C(N)=O)C(C)C)[C@@H](C)CC)[C@@H](C)CC)[C@@H](C)O [Analog 2] (Myristoyl-TPDINPAWYASRGIRPVGRF-NH2) | 10 | 1027 |  | 90 | nmol·l^−1 range | nmol·l^−1 range |  |
| CCCCCCCCCCCCCC(=O)N[C@@H](CO)C(=O)N[C@@H](CCCNC(=N)N)C(=O)N[C@@H](C)C(=O)N[C@@H](Cc1c[nH]cn1)C(=O)N[C@@H](CCC(N)=O)C(=O)N[C@@H](Cc1c[nH]cn1)C(=O)N[C@@H](CO)C(=O)N[C@@H](CCSC)C(=O)N[C@@H](CCC(=O)O)C(=O)N[C@H](C(=O)N[C@@H](CCCNC(=N)N)C(=O)N[C@H](C(=O)N1CCC[C@H]1C(=O)N[C@@H](CC(=O)O)C(=O)N[C@H](C(=O)N[C@@H](CC(N)=O)C(=O)N1CCC[C@H]1C(=O)N[C@@H](C)C(=O)N[C@@H](Cc1c[nH]c2ccccc12)C(=O)N[C@@H](Cc1ccc(O)cc1)C(=O)N[C@H](C(=O)NCC(=O)N[C@@H](CCCNC(=N)N)C(=O)NCC(=O)N[C@H](C(=O)N[C@@H](CCCNC(=N)N)C(=O)N1CCC[C@H]1C(=O)N[C@H](C(=O)NCC(=O)N[C@@H](CCCNC(=N)N)C(=O)N[C@@H](Cc1ccccc1)C(N)=O)C(C)C)[C@@H](C)CC)[C@@H](C)O)[C@@H](C)CC)[C@@H](C)O)[C@@H](C)O [Analog 46] (Myristoyl-SRAHQHSMETRTPDINPAWYTGRGIRPVGRF-NH2) | 20 | 657 |  |  |  |  |  |
| CCCCCCCCCCCCCCCC(=O)N[C@@H](CO)C(=O)N[C@@H](CCCNC(=N)N)C(=O)N[C@@H](C)C(=O)N[C@@H](Cc1c[nH]cn1)C(=O)N[C@@H](CCC(N)=O)C(=O)N[C@@H](Cc1c[nH]cn1)C(=O)N[C@@H](CO)C(=O)N[C@@H](CCSC)C(=O)N[C@@H](CCC(=O)O)C(=O)N[C@H](C(=O)N[C@@H](CCCNC(=N)N)C(=O)N[C@H](C(=O)N1CCC[C@H]1C(=O)N[C@@H](CC(=O)O)C(=O)N[C@H](C(=O)N[C@@H](CC(N)=O)C(=O)N1CCC[C@H]1C(=O)N[C@@H](C)C(=O)N[C@@H](Cc1c[nH]c2ccccc12)C(=O)N[C@@H](Cc1ccc(O)cc1)C(=O)N[C@H](C(=O)NCC(=O)N[C@@H](CCCNC(=N)N)C(=O)NCC(=O)N[C@H](C(=O)N[C@@H](CCCNC(=N)N)C(=O)N1CCC[C@H]1C(=O)N[C@H](C(=O)NCC(=O)N[C@@H](CCCNC(=N)N)C(=O)N[C@@H](Cc1ccccc1)C(N)=O)C(C)C)[C@@H](C)CC)[C@@H](C)O)[C@@H](C)CC)[C@@H](C)O)[C@@H](C)O [Analog 47] (Palmitoyl-SRAHQHSMETRTPDINPAWYTGRGIRPVGRF-NH2) | 2 | 1202 |  |  |  |  |  |
| CCCCCCCCCCCCCCCC(=O)NCCCC[C@H](NC(=O)[C@@H]1CCCN1C(=O)[C@H](CC(N)=O)NC(=O)[C@@H](NC(=O)[C@H](CC(=O)O)NC(=O)[C@@H]1CCCN1C(=O)[C@@H](NC(=O)[C@H](CCCNC(=N)N)NC(=O)[C@@H](NC(=O)[C@H](CCC(=O)O)NC(=O)[C@H](CCSC)NC(=O)[C@H](CO)NC(=O)[C@H](Cc1c[nH]cn1)NC(=O)[C@H](CCCNC(=N)N)NC(=O)[C@H](Cc1c[nH]cn1)NC(=O)[C@@H](NC(=O)[C@H](CCCNC(=N)N)NC(=O)[C@@H](N)CO)[C@@H](C)O)[C@@H](C)CC)[C@@H](C)O)[C@@H](C)CC)C(=O)N[C@@H](Cc1c[nH]c2ccccc12)C(=O)N[C@@H](Cc1ccc(O)cc1)C(=O)N[C@@H](C)C(=O)N[C@@H](CO)C(=O)N[C@@H](CCCNC(=N)N)C(=O)NCC(=O)N[C@H](C(=O)N[C@@H](CCCNC(=N)N)C(=O)N1CCC[C@H]1C(=O)N[C@H](C(=O)NCC(=O)N[C@@H](CCCNC(=N)N)C(=O)N[C@@H](Cc1ccccc1)C(N)=O)C(C)C)[C@@H](C)CC [Analog 51] (H-SRTHRHSMEIRTPDINPK(Palmitoyl)WYASRGIRPVGRF-NH2) | 20 |  | 7.24 ± 0.13 | 54 |  |  |  |
| CC[C@H](C)[C@H](NC(=O)CNC(=O)[C@H](CCCNC(=N)N)NC(=O)[C@H](CO)NC(=O)[C@H](C)NC(=O)[C@H](Cc1ccc(O)cc1)NC(=O)[C@H](Cc1c[nH]c2ccccc12)NC(=O)[C@H](C)NC(=O)[C@@H]1CCCN1C(=O)[C@H](CC(N)=O)NC(=O)[C@@H](NC(=O)[C@H](CC(=O)O)NC(=O)[C@@H]1CCCN1C(=O)[C@@H](NC(=O)[C@H](CCCNC(=N)N)NC(=O)[C@@H](NC(=O)[C@H](CCC(=O)O)NC(=O)[C@H](CCSC)NC(=O)[C@H](CO)NC(=O)[C@H](Cc1c[nH]cn1)NC(=O)[C@H](CCCNC(=N)N)NC(=O)[C@H](Cc1c[nH]cn1)NC(=O)[C@@H](NC(=O)[C@H](CCCNC(=N)N)NC(=O)[C@@H](N)CO)[C@@H](C)O)[C@@H](C)CC)[C@@H](C)O)[C@@H](C)CC)C(=O)N[C@@H](CCCNC(=N)N)C(=O)N1CCC[C@H]1C(=O)N[C@H](C(=O)NCC(=O)N[C@@H](CCCNC(=N)N)C(=O)N[C@@H](Cc1ccccc1)C(N)=O)C(C)C [Human PrRP31, reference compound] | 100 | 207 |  |  |  |  | 2.38 ± 0.19 |
| TPDINPAWYASRGIRPVGRF-NH2 [Human PrRP20, reference compound] | 100 | 277 |  |  |  |  | 1.78 ± 0.46 |

Source: patent US10350271B2, “Lipidated peptides for lowering blood glucose” (USTAV ORGANICKE CHEMIE A BIOCHEMIE AKADEMIE VED CR, V.V.I., priority 2014, dated 2019)
